US20230346771A1, “INHIBITORS OF ENPP1 AND MODULATION OF BONE GROWTH” (Petragen, Inc., priority 2022, published 2023)

Tested on: fenestration defects on buccal aspect of mandibular first molar in mice
Assay: Fenestration defect model with microCT of mandibles
Format: in vivo
Conditions: high dose (10 uM, 1 uL on collagen sponge in defect); 28 days; compared to ALPL, DMSO and low dose
Protocol: Fenestration defects were created on buccal aspect of mandibular first molar, distal root, in 6-7 week old mice. Collagen sponge with 1 uL of either alkaline phosphatase (ALPL) (100 ng/uL), DMSO (1 uL undiluted), high dose ENPP1 inhibitor (10 uM), low dose ENPP1 inhibitor (1 uM) was applied in the defect (n=3 or 4 for each group). Mice were euthanized 28 days later, and their mandibles were microCT scanned (unoperated side, defect side). A region of interest was defined as follows: • Right and left sides registered to each other to standardize position; • 480 microns mesial to and 3600 microns distal to first molar mesial height of contour; and
Unoperated side with defect side were registered, the enamel was removed from analysis, and change in volume (defect side—control side) was calculated from for dentin/cementum and alveolar bone for each treatment: ALPL, DMSO, low dose ENPP1 inhibitor, and high dose ENPP1 inhibitor. Regenerated bone area was much larger than defect size. To make the defect, muscle attachment was severed, and the region was curetted. Because the collagen sponge was placed in the defect and not fully enclosed (muscle was repositioned and sutured over sponge), there could be some leakage of DMSO/ALP/ENPP1 inhibitor, further stimulating bone growth.

SMILES: COc1ccc2c(-c3ccc(CNS(N)(=O)=O)cc3)ccnc2c1 [ENPP1 inhibitor, N-[[4-(7-methoxy-4-quinolinyl)phenyl]methyl]-sulfamide]
- bone densities on the fenestration side (density heat maps): higher
